Consider seven compounds from publication PMC12019622 (World Journal of Experimental Medicine, 2025).

A word on the IC50: it is the midpoint of a concentration-inhibition curve.

For series [1], the system named is Malignant meningioma. The settings on record: clinical, cited from earlier work; for partial response (PR) rate: malignant meningioma.
The test system of series [2] is IOMM-Lee malignant meningioma cell line. Nature of the series: Growth inhibition experiment. The class given is cell-based. The following applies: read-out: IC50 value.
The subject of series [3] is HKBMM malignant meningioma cell line. As to the kind of experiment: Growth inhibition experiment. Format: cell-based. The following applies: read-out: IC50 value.
In series [4] the test system is blood-brain barrier (BBB). The settings on record: cited from earlier work.
The nature of series [5]: Tissue distribution: blood concentration and brain distribution by HPLC. The class given is in vivo, C57BL/6 (B6) mice. The settings on record: male, C57BL/6, mouse, intraperitoneal, 2 mg/kg.

`CC#C[C@]1(O)CC[C@H]2[C@@H]3CCC4=CC(=O)CCC4=C3[C@@H](c3ccc(N(C)C)cc3)C[C@@]21C` [mifepristone]: the “partial response (PR) rate” value in series [1] is 1.4%-30.76%.
`COc1cc(C=CC(=O)C=Cc2ccc(O)c(OC)c2)ccc1O` [GO-Y022, 1,5-bis (4-hydroxy-3-methoxyphenyl)-1,4-pentadiene-3-one]: the IC50 worked out at 4.3 µM in series [2] and 4.5 µM in series [3]. Moreover, the “permeability across the blood-brain barrier (BBB)” value in series [4] is listed as 8.2 ± 1.3 × 10^−6 cm/s.
Regarding `CC/C(=C(\c1ccccc1)c1ccc(OCCN(C)C)cc1)c1ccccc1` [tamoxifen], the “partial response (PR) rate” value in series [1] was 5%-16.66%.
Regarding `COc1cc(/C=C/C(=O)CC(=O)/C=C/c2ccc(O)c(OC)c2)ccc1O` [curcumin, Curcumin, reference compound], the IC50 in series [2] came out at 13.3 µM; in series [3] it was 20 µM. Moreover, the “permeability across the blood-brain barrier (BBB)” value in series [4] was 0.60 ± 0.67 × 10^−6 cm/s.
For the compound `CCN(CC)CCNC(=O)c1c(C)[nH]c(/C=C2\C(=O)Nc3ccc(F)cc32)c1C` [Sunitinib], in series [1] (meningioma), the “6-month progression-free survival rate” value is 42% and the PR rate is recorded as 5.55%.
As for `NC(=O)NO` [hydroxyurea], the “partial response (PR) rate” value in series [1] is reported as 0%-10%.
In series [5] (brain), `COCOc1cc(/C=C/C(=O)/C=C/c2cc(OCOC)cc(OCOC)c2)cc(OCOC)c1` [GO-Y030, (1E,4E)-1,5-bis [3,5-bis (methoxymethoxy)phenyl] penta-1,4-dien-3-one] showed a concentration at 1 h of 0 ng/g, a concentration at 3 h of 26.8 ng/g and a concentration at 6 h of 23.1 ng/g. In series [5] (serum), the concentration at 1 h was found to be 18 ng/mL, the concentration at 3 h worked out at 46.7 ng/mL and the concentration at 6 h turned out to be 58.2 ng/mL.
